Measurements from patent publication US11267826B2, “Penicillin-binding protein inhibitors” (priority 2017, dated 2022).
Read-outs that look alike come from different tables or passages of the source.

Legend:
S. aureus ATCC 29213 = assay: Broth microdilution MIC assay, S. aureus; format: cell-based; conditions: Staphylococcus aureus
Experimental: (§1) To determine the ability of test compounds to potentiate the inhibition of the growth of bacterial strains, classic cell based broth microdilution MIC assays were employed. MIC assays are performed according to CLSI methods except where otherwise noted (CLSI, 2011 and CLSI, 2009). The reference strain S. aureus ATCC 29213 and the hyper-permeable E. coli 901C were used to determine the ability of the PBP compounds to inhibit bacterial growth. Briefly, cryo-preserved bacterial cultures of clinical strains are streaked for isolation on appropriate agar medium, in this case Mueller Hinton II agar. Following incubation to allow formation of colonies these plates are sealed with parafilm and stored refrigerated for up to two weeks. For preparation of assay inocula and to ensure low variability, at least 5 colonies are picked from the agar plates with an inoculating loop and aseptically transferred to a culture tube containing 3 mL of Mueller-Hinton Broth (supplemented with divalent cations to required levels based on Manufacturers' certification). The broth culture is grown for 3-5 hours at 37° C. with shaking at 200 rpm. Meanwhile, 2-fold serial dilutions of test compounds are conducted in a 96 well plate with a final volume of 75 μL per well at 2-fold the final desired concentration. After the dilution plates are set up the growing cultures are then diluted in a cuvette containing MH II broth and the optical density is measured at 600 nm. Inocula are diluted such that 75 μL of this culture in Mueller-Hinton Broth results in a starting bacterial concentration of 5×10^5 CFU/mL when added to the dilution plates. The plates are incubated 16-20 hours at 37° C. The MIC is read visually as the lowest concentration well with no bacterial growth.

[1] = tested on: hyper-permeable E. coli 901C; assay: Broth microdilution MIC assay, hyper-permeable E. coli; format: cell-based; conditions: Escherichia coli, read-out: E. coli 901C MIC
Experimental: as §1

[2] = ATCC29213, broth microdilution, 16-20 hours at 37° C., read-out: S. aureus 29213 MIC

O=C(N[C@H]1Cc2cccc(C(=O)O)c2OB1O)/C(=N\O)c1cscn1 [Example 90, (R,Z)-2-hydroxy-3-(2-(hydroxyimino)-2-(thiazol-4-yl)acetamido)-3,4-dihydro-2H-benzo[e][1,2]oxaborinine-8-carboxylic Acid]
MIC (S. aureus ATCC 29213; [2]): < 64 µg/mL
MIC [1]: 64 to 128 µg/mL

O=C(N[C@H]1Cc2cccc(C(=O)O)c2OB1O)/C(=N\O)c1csc(S)n1 [Example 91, (R,Z)-2-hydroxy-3-(2-(hydroxyimino)-2-(2-mercaptothiazol-4-yl)acetamido)-3,4-dihydro-2H-benzo[e][1,2]oxaborinine-8-carboxylic Acid]
MIC (S. aureus ATCC 29213; [2]): < 64 µg/mL
MIC [1]: > 128 µg/mL

COc1ccc(CSc2nc(/C(=N/O)C(=O)N[C@H]3Cc4cccc(C(=O)O)c4OB3O)cs2)cc1 [Example 92, (R,Z)-2-hydroxy-3-(2-(hydroxyimino)-2-(2-((4-methoxybenzyl)thio)thiazol-4-yl)acetamido)-3,4-dihydro-2H-benzo[e][1,2]oxaborinine-8-carboxylic Acid]
MIC (S. aureus ATCC 29213; [2]): < 64 µg/mL
MIC [1]: > 128 µg/mL

O=C(N[C@H]1Cc2cccc(C(=O)O)c2OB1O)C(=NO)c1csc(-n2ccnc2)n1 [Example 93, (R)-3-(2-(2-(1H-imidazol-1-yl)thiazol-4-yl)-2-(hydroxyimino)acetamido)-2-hydroxy-3,4-dihydro-2H-benzo[e][1,2]oxaborinine-8-carboxylic Acid]
MIC (S. aureus ATCC 29213; [2]): < 64 µg/mL
MIC [1]: > 128 µg/mL

NCCN(CCN)c1nc(/C(=N/O)C(=O)N[C@H]2Cc3cccc(C(=O)O)c3OB2O)cs1 [Example 94, (R,Z)-3-(2-(2-(bis(2-aminoethyl)amino)thiazol-4-yl)-2-(hydroxyimino)acetamido)-2-hydroxy-3,4-dihydro-2H-benzo[e][1,2]oxaborinine-8-carboxylic Acid]
MIC (S. aureus ATCC 29213; [2]): < 64 µg/mL
MIC [1]: > 128 µg/mL

CC(C)O/N=C(\C(=O)N[C@H]1Cc2cccc(C(=O)O)c2OB1O)c1csc(N)n1 [Example 97, (R,Z)-3-(2-(2-aminothiazol-4-yl)-2-(isopropoxyimino)acetamido)-2-hydroxy-3,4-dihydro-2H-benzo[e][1,2]oxaborinine-8-carboxylic Acid]
MIC (S. aureus ATCC 29213; [2]): 64 to 128 µg/mL
MIC [1]: > 128 µg/mL

CCCO/N=C(\C(=O)N[C@H]1Cc2cccc(C(=O)O)c2OB1O)c1csc(N)n1 [Example 98, (R,Z)-3-(2-(2-aminothiazol-4-yl)-2-(propoxyimino)acetamido)-2-hydroxy-3,4-dihydro-2H-benzo[e][1,2]oxaborinine-8-carboxylic Acid]
MIC (S. aureus ATCC 29213; [2]): < 64 µg/mL
MIC [1]: < 64 µg/mL

CC(C)CO/N=C(\C(=O)N[C@H]1Cc2cccc(C(=O)O)c2OB1O)c1csc(N)n1 [Example 100, (R,Z)-3-(2-(2-aminothiazol-4-yl)-2-(isobutoxyimino)acetamido)-2-hydroxy-3,4-dihydro-2H-benzo[e][1,2]oxaborinine-8-carboxylic Acid]
MIC (S. aureus ATCC 29213; [2]): < 64 µg/mL
MIC [1]: < 64 µg/mL

O=C(N[C@H]1Cc2cccc(C(=O)O)c2OB1O)/C(=N\O)c1csc(NCCF)n1 [Example 101, (R,Z)-3-(2-(2-((2-fluoroethyl)amino)thiazol-4-yl)-2-(hydroxyimino)acetamido)-2-hydroxy-3,4-dihydro-2H-benzo[e][1,2]oxaborinine-8-carboxylic Acid]
MIC (S. aureus ATCC 29213; [2]): > 128 µg/mL
MIC [1]: 64 to 128 µg/mL

O=C(N[C@H]1Cc2cccc(C(=O)O)c2OB1O)/C(=N\O)c1csc(NCCO)n1 [Example 102, (R,Z)-2-hydroxy-3-(2-(2-((2-hydroxyethyl)amino)thiazol-4-yl)-2-(hydroxyimino)acetamido)-3,4-dihydro-2H-benzo[e][1,2]oxaborinine-8-carboxylic Acid]
MIC (S. aureus ATCC 29213; [2]): > 128 µg/mL
MIC [1]: > 128 µg/mL

O=C(N[C@H]1Cc2cccc(C(=O)O)c2OB1O)/C(=N/O)c1nnn[nH]1 [Example 103, (R,E)-2-hydroxy-3-(2-(hydroxyimino)-2-(1H-tetrazol-5-yl)acetamido)-3,4-dihydro-2H-benzo[e][1,2]oxaborinine-8-carboxylic Acid]
MIC (S. aureus ATCC 29213; [2]): > 128 µg/mL
MIC [1]: > 128 µg/mL

CC(O/N=C(\C(=O)N[C@H]1Cc2cccc(C(=O)O)c2OB1O)c1csc(N)n1)C(=O)NCCNCCN (stereo partly drawn) [Example 104, (3R)-3-((Z)-12-amino-2-(2-aminothiazol-4-yl)-5-methyl-6-oxo-4-oxa-3,7,10-triazadodec-2-enamido)-2-hydroxy-3,4-dihydro-2H-benzo[e][1,2]oxaborinine-8-carboxylic Acid]
MIC (S. aureus ATCC 29213; ATCC29213, read-out: S. aureus 29213 MIC): > 128 µg/mL
MIC [1]: < 64 µg/mL

NCCO/N=C(\C(=O)N[C@H]1Cc2cccc(C(=O)O)c2OB1O)c1csc(N)n1 [Example 105, (R,Z)-3-(2-((2-aminoethoxy)imino)-2-(2-aminothiazol-4-yl)acetamido)-2-hydroxy-3,4-dihydro-2H-benzo[e][1,2]oxaborinine-8-carboxylic Acid]
MIC (S. aureus ATCC 29213; [2]): > 128 µg/mL
MIC [1]: < 64 µg/mL

CNc1nc(/C(=N/O)C(=O)N[C@H]2Cc3cccc(C(=O)O)c3OB2O)cs1 [Example 106, (R,Z)-2-hydroxy-3-(2-(hydroxyimino)-2-(2-(methylamino)thiazol-4-yl)acetamido)-3,4-dihydro-2H-benzo[e][1,2]oxaborinine-8-carboxylic Acid]
MIC (S. aureus ATCC 29213; [2]): > 128 µg/mL
MIC [1]: > 128 µg/mL

CCNc1nc(/C(=N/O)C(=O)N[C@H]2Cc3cccc(C(=O)O)c3OB2O)cs1 [Example 107, (R,Z)-3-(2-(2-(ethylamino)thiazol-4-yl)-2-(hydroxyimino)acetamido)-2-hydroxy-3,4-dihydro-2H-benzo[e][1,2]oxaborinine-8-carboxylic Acid]
MIC (S. aureus ATCC 29213; [2]): > 128 µg/mL
MIC [1]: > 128 µg/mL

O=C(O)CNc1nc(/C(=N/O)C(=O)N[C@H]2Cc3cccc(C(=O)O)c3OB2O)cs1 [Example 108, (R,Z)-3-(2-(2-((carboxymethyl)amino)thiazol-4-yl)-2-(hydroxyimino)acetamido)-2-hydroxy-3,4-dihydro-2H-benzo[e][1,2]oxaborinine-8-carboxylic Acid]
MIC (S. aureus ATCC 29213; [2]): > 128 µg/mL
MIC [1]: > 128 µg/mL

NC(=O)CNc1nc(/C(=N/O)C(=O)N[C@H]2Cc3cccc(C(=O)O)c3OB2O)cs1 [Example 109, (R,Z)-3-(2-(2-((2-amino-2-oxoethyl)amino)thiazol-4-yl)-2-(hydroxyimino)acetamido)-2-hydroxy-3,4-dihydro-2H-benzo[e][1,2]oxaborinine-8-carboxylic Acid]
MIC (S. aureus ATCC 29213; [2]): > 128 µg/mL
MIC [1]: > 128 µg/mL

NCCON=C(C(=O)N[C@H]1Cc2cccc(C(=O)O)c2OB1O)c1nnn[nH]1 [Example 110, (R)-3-(2-((2-aminoethoxy)imino)-2-(1H-tetrazol-5-yl)acetamido)-2-hydroxy-3,4-dihydro-2H-benzo[e][1,2]oxaborinine-8-carboxylic Acid]
MIC (S. aureus ATCC 29213; [2]): > 128 µg/mL
MIC [1]: > 128 µg/mL

NCCn1nnc(C(=NO)C(=O)N[C@H]2Cc3cccc(C(=O)O)c3OB2O)n1 [Example 111, (R)-3-(2-(2-(2-aminoethyl)-2H-tetrazol-5-yl)-2-(hydroxyimino)acetamido)-2-hydroxy-3,4-dihydro-2H-benzo[e][1,2]oxaborinine-8-carboxylic Acid]
MIC (S. aureus ATCC 29213; [2]): > 128 µg/mL
MIC [1]: > 128 µg/mL

O=C(O)CO/N=C(/Cn1cncn1)C(=O)N[C@H]1Cc2cccc(C(=O)O)c2OB1O [Example 112, (R,Z)-3-(2-((carboxymethoxy)imino)-3-(1H-1,2,4-triazol-1-yl)propanamido)-2-hydroxy-3,4-dihydro-2H-benzo[e][1,2]oxaborinine-8-carboxylic Acid]
MIC (S. aureus ATCC 29213; [2]): > 128 µg/mL
MIC [1]: > 128 µg/mL
